According to patent US12691124B2, “Methods of controlling and improving brain health” (ICAHN SCHOOL OF MEDICINE AT MOUNT SINAI, priority 2019, dated 2026):

How the values were obtained:
[1] = test system: primary cortical neurons; test: Gene expression in primary cortical neurons; format: cell-based, mouse
Text: Primary Cortical Neuron Culture. Embryonic day 18 (E18) timed-pregnant female mice were anesthetized with CO2 and sacrificed by cervical dislocation. In a dissection hood, 24-26 embryos per experiment were collected through an incision of the mother's abdomen, taken out of the amniotic sacs and decapitated in ice cold Hank's Balanced Salt Solution (HBSS). Using fine scissors and forceps, brains were rapidly dissected and the cortex cleared from meninges and isolated under a dissection microscope. Cortices were collected in ice cold HBSS and kept on ice until all embryos had been dissected. In a tissue culture hood, HBSS was removed and the cortex tissue digested by 0.25% Trypsin-EDTA for 12 minutes at 37° C., followed by DNase1 treatment for 10 minutes at 37° C. The tissue was dissociated by serial trituration with a 25 ml serological pipette, followed by trituration with 10 ml and 5 ml serological pipettes. Cell suspension was washed once with DMEM medium, supplemented with 10% FBS and 1% penicillin/streptomycin and passed through a […] cell strainer before counted on a hemocytometer. Single cells were seeded on poly-D-lysine (0.1 mg ml-1) coated wells at a density of 1×10^6 cells per well on a 12-well plate. Cells were grown in Neurobasal medium, complemented with B27 supplement, N2 supplement, and 0.5 mM L-glutamine and maintained at 37° C. in 5% CO2 for 1 week. […] Cultures were washed with phosphate-buffered saline (PBS) on ice and processed for RNA isolation using TRIzol/Chloroform extraction.
RNA Isolation. For in vitro gene expression analysis, neuronal culture plates were washed once with PBS, and TRIzol was added directly to cultures to isolate RNA (n=3 per group). For in vivo gene expression analysis, mice were anesthetized with CO2 and decapitated. The striata from two control and acute or chronic I-BET treated mice were rapidly dissected on ice and frozen in liquid nitrogen. RNA extraction from frozen samples was performed using TRIzol/Chloroform according to manufacturer's instructions (Invitrogen Corporation, Carlsbad, CA). RNA was precipitated overnight at −80° C. in isopropanol with 0.15 M sodium acetate, washed twice with 70% ethanol, air-dried, and resuspended in RNase-free water. RNA samples were purified using Rneasy Micro columns (Qiagen) with on-column DNAse treatment as specified by manufacturer. […]
RNA Sequencing. […] Duplexed libraries were sequenced on HiSeq 2000, typically yielding on average 60 million, 100 bp long single-end reads per sample (Illumina). […] After filtering out adaptor and low quality reads, reads were mapped using TopHat (version 2.0.8) to the mm9 mouse genome. […] Differentially expressed autosomal genes between control and acute I-BET858 or chronic I-BET858 libraries were determined using a p-value <0.05 and fold change of >2. […]

[2] = test system: young mice; details: cited from earlier work

With `CC(=O)N1c2ccc(-c3ccc(CN4CCCCC4)cc3)cc2[C@H](Nc2ccccc2)CC1C` (stereo in doubt) [IBET858] as the molecule, how does the “cellular composition of the culture and cell identity gene expression” value ([1]; 1 week IBET858) read?
Its value is “does not change”.

What about the “autophagy, proteolysis and pro-survival genes” value ([1]; chronic BET inhibition) of the same molecule?
Its value is “up-regulation”.

What about the “metabolic genes (amino acid synthesis and import, glycolysis/TCA cycle, oxidative phosphorylation, fatty acid metabolism)” value ([1]; chronic BET inhibition, day 14) of the same molecule?
Its value is “down-regulated”.

What about the “genes decreased by rapamycin that were also decreased by IBET858” value ([1]; one week treatment, 93/165) of the same molecule?
The value was 56%.

And the “neuronal gene expression in young mice” value ([2]; mouse, in vivo)?
The value was “selective suppression of neuronal gene expression”.

What about the “behavioural phenotype of young mice” value ([2]; pharmacological suppression of BET proteins in the brain of young mice) of the same molecule?
Its value is “development of an autism-like syndrome”.
